# Assay results as given in patent publication US8785468B2, “Phenylalanine amide derivatives useful for treating insulin-related diseases and conditions” (Amgen Inc., priority 2009, dated 2014).
# Structures can show the parent of a compound that is named as a salt.
# Molecular target: T1, human receptor found in pancreatic islet cells (Homo sapiens, UniProt Q7Z601)
# T1 sequence (Q7Z601 1-462): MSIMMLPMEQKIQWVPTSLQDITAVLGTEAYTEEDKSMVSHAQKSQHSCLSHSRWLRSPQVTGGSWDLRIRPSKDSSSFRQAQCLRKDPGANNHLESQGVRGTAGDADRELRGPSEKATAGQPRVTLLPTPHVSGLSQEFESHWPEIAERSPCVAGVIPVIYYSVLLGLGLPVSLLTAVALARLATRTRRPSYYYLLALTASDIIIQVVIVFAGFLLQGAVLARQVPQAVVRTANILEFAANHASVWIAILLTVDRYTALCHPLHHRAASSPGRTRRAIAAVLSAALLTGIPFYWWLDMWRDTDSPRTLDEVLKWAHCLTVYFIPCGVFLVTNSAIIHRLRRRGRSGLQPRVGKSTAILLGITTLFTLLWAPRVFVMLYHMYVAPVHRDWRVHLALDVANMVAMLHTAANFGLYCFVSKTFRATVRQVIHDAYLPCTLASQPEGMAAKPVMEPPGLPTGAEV
# Assay: Activation of intracellular IP3 signaling in transfected cells (Activation Assay)
# Format: cell-based
# Settings: calculated from IP3 concentration measurements in cells transfected with the human receptor
# Description: Table 12 provides exemplary compounds that were prepared and assessed, following protocols known to those of skilled in the art, for activation of intracellular inositol trisphosphate (IP3) signaling pathways that lead to elevation of intracellular calcium concentration. EC50 values provided in Table 12 were calculated from IP3 concentration measurements in cells transfected with a human receptor found in pancreatic islet cells, inter alia.
row,SMILES,EC50
1,"Nc1cc(-c2cccc(NC(=O)[C@H](Cc3ccccc3)NCc3cscn3)c2)ccn1 [Example 36, (2S)—N-(3-(2-Aminopyridin-4-yl)phenyl)-3-phenyl-2-(thiazol-4-ylmethylamino)propanamide]",100 to 1000 nM
2,"COc1ccc(NC(=O)[C@H](Cc2ccccc2)NCc2cscn2)cc1-c1ccncc1 [Example 37, (S)—N-(4-Methoxy-3-(pyridin-4-yl)phenyl)-3-phenyl-2-(thiazol-4-ylmethylamino)propanamide]",50 to 100 nM
3,"COc1ccc(NC(=O)[C@H](Cc2ccccc2)NCc2cscn2)cc1-c1ccncc1 [Example 38, (S)—N-(4-Methoxy-3-(pyridin-4-yl)phenyl)-3-phenyl-2-(thiazol-4-ylmethylamino)propanamide]",100 to 1000 nM
4,"Cc1cc(-c2cccc(NC(=O)[C@H](Cc3ccccc3)NCc3cscn3)c2)ccn1 [Example 39, (2S)—N-(3-(2-methylpyridin-4-yl)phenyl)-3-phenyl-2-(thiazol-4-ylmethylamino)propanamide]",50 to 100 nM
5,"Nc1cccc(-c2cccc(NC(=O)[C@H](Cc3ccccc3)NCc3cscn3)c2)c1 [Example 40, (S)—N-(3′-aminobiphenyl-3-yl)-3-phenyl-2-(thiazol-4-ylmethylamino)propanamide]",1000 to 10000 nM
6,"COc1ncc(-c2ccnc(C)c2)cc1NC(=O)[C@H](Cc1ccccc1)NC1(c2ccccn2)CC1 [Example 41.1, (2S)—N-(2-Methoxy-5-(2-methylpyridin-4-yl)pyridin-3-yl)-3-phenyl-2-(1-(pyridin-2-yl)cyclopropylamino)propanamide]",100 to 1000 nM
7,"COc1ncc(-c2ccnc(C)c2)cc1NC(=O)[C@H](Cc1ccccc1)N[C@@H](C)c1ccccn1 [Example 41.2, (S)—N-(2-Methoxy-5-(2-methylpyridin-4-yl)pyridin-3-yl)-3-phenyl-2-((S)-1-(pyridin-2-yl)ethylamino)propanamide]",100 to 1000 nM
8,"COc1ncc(-c2ccnc(C)c2)cc1NC(=O)[C@H](Cc1ccccc1)NCc1ccccn1 [Example 41.3, (2S)—N-(2-Methoxy-5-(2-methylpyridin-4-yl)pyridin-3-yl)-3-phenyl-2-(pyridin-2-ylmethylamino)propanamide]",100 to 1000 nM
9,"COc1ncc(-c2ccnc(C)c2)cc1NC(=O)[C@H](Cc1ccccc1)NCc1cn(C)cn1 [Example 41.4, (2S)—N-(2-Methoxy-5-(2-methylpyridin-4-yl)pyridin-3-yl)-2-((1-methyl-1H-imidazol-4-yl)methylamino)-3-phenylpropanamide]",100 to 1000 nM
10,"COc1ncc(-c2ccnc(C)c2)cc1NC(=O)[C@H](Cc1ccccc1)NCc1cscn1 [Example 41.5, (2S)—N-(2-Methoxy-5-(2-methylpyridin-4-yl)pyridin-3-yl)-3-phenyl-2-(thiazol-4-ylmethylamino)propanamide TFA salt]",100 to 1000 nM
11,"COc1cc(NC(=O)[C@H](Cc2ccccc2)NCc2cscn2)cc(-c2ccnc(C)c2)n1 [Example 41.6, (2S)—N-(2-Methoxy-6-(2-methylpyridin-4-yl)pyridin-4-yl)-3-phenyl-2-(thiazol-4-ylmethylamino)propanamide]",100 to 1000 nM
12,"CCCn1nc(-c2ccnc(NC)c2)cc1NC(=O)[C@H](Cc1ccc(F)cc1)NCc1cscn1 [Example 42, (2S)-3-(4-fluorophenyl)-N-(3-(2-(methylamino)pyridin-4-yl)-1-propyl-1H-pyrazol-5-yl)-2-(thiazol-4-ylmethylamino)propanamide]",< 50 nM
13,"CNc1cc(-c2cc(NC(=O)[C@@H](N)Cc3ccc(F)cc3)n(C(C)C)n2)ccn1 [Example 43.1, (2S)-2-Amino-3-(4-fluorophenyl)-N-(1-isopropyl-3-(2-(methylamino)pyridin-4-yl)-1H-pyrazol-5-yl)propanamide]",100 to 1000 nM
14,CNc1cc(-c2cc(NC(=O)[C@H](Cc3ccc(F)cc3)NCc3cscn3)n(C(C)C)n2)ccn1 [Example 43.2],50 to 100 nM
15,O=C(Nc1cccc(-c2ccc(F)cc2)c1)[C@H](Cc1ccccc1)NCc1cscn1 [Example 44],100 to 1000 nM
16,"N[C@@H](Cc1ccccc1)C(=O)Nc1cc(C(=O)O)cc(-c2ccncc2)c1 [Example 45.1, (S)-3-(2-Amino-3-phenylpropanamido)-5-(pyridin-4-yl)benzoic acid]",1000 to 10000 nM
17,"O=C(O)c1cc(NC(=O)[C@H](Cc2ccccc2)NCc2nccs2)cc(-c2ccncc2)c1 [Example 45.3, (S)-3-(3-Phenyl-2-(thiazol-2-ylmethylamino)propanamido)-5-(pyridin-4-yl)benzoic acid]",100 to 1000 nM

row,SMILES,EC50
1,"O=C(O)c1cc(NC(=O)[C@H](Cc2ccccc2)NCc2cn[nH]c2)cc(-c2ccncc2)c1 [Example 45.4, (S)-3-(2-((1H-Pyrazol-4-yl)methylamino)-3-phenylpropanamido)-5-(pyridin-4-yl)benzoic acid]",1000 to 10000 nM
2,"O=C(O)c1cc(NC(=O)[C@H](Cc2ccccc2)NCc2cc[nH]n2)cc(-c2ccncc2)c1 [Example 45.5, (S)-3-(2-((1H-Pyrazol-3-yl)methylamino)-3-phenylpropanamido)-5-(pyridin-4-yl)benzoic acid]",100 to 1000 nM
3,"O=C(O)c1cc(NC(=O)[C@H](Cc2ccccc2)NCc2ccccn2)cc(-c2ccncc2)c1 [Example 45.6, (S)-3-(3-Phenyl-2-(pyridin-2-ylmethylamino)propanamido)-5-(pyridin-4-yl)benzoic acid]",50 to 100 nM
4,"Cc1cc(-c2cc(Cl)cc(NC(=O)[C@H](Cc3ccccc3)NCc3ccccn3)c2)ccn1 [Example 46, (2S)—N-(3-chloro-5-(2-methylpyridin-4-yl)phenyl)-3-phenyl-2-(pyridin-2-ylmethylamino)propanamide]",50 to 100 nM
5,"NC(=O)c1cc(NC(=O)[C@H](Cc2ccccc2)NCc2cscn2)cc(-c2ccncc2)c1 [Example 47, (S)-3-(3-phenyl-2-(thiazol-4-ylmethylamino)propanamido)-5-(pyridin-4-yl)benzamide]",50 to 100 nM
6,O=C(Nc1cccc(-c2ccccc2)c1)[C@H](Cc1ccccc1)NCc1cscn1 [Example 48],100 to 1000 nM
7,"Cc1cc(-c2cc(NC(=O)[C@@H](N)Cc3ccc(Cl)cc3Cl)cc(C(=O)O)c2)ccn1 [Example 49.1, 3-((S)-2-Amino-3-(2,4-dichlorophenyl)propanamido)-5-(2-methylpyridin-4-yl)benzoic acid]",1000 to 10000 nM
8,"Cc1cc(-c2cc(NC(=O)[C@H](Cc3ccccc3)NCc3cscn3)cc(C(=O)O)c2)ccn1 [Example 49.2, 3-(2-Methylpyridin-4-yl)-5-((S)-3-phenyl-2-(thiazol-4-ylmethylamino)propanamido)benzoic acid TFA salt]",100 to 1000 nM
9,"O=C([C@H](Cc1ccccc1)NCc1ccccn1)N1CCc2ccc(-c3ccncc3)cc21 [Example 50, (S)-3-Phenyl-2-(pyridin-2-ylmethylamino)-1-(6-(pyridin-4-yl)indolin-1-yl)propan-1-one TFA Salt]",100 to 1000 nM
10,"Cc1cc(-c2cc(NC(=O)[C@H](Cc3ccccc3)NCc3cscn3)cc(NS(C)(=O)=O)c2)ccn1 [Example 51.1, (2S)—N-(3-(2-Methylpyridin-4-yl)-5-(methylsulfonamido)phenyl)-3-phenyl-2-(thiazol-4-ylmethylamino)propanamide]",50 to 100 nM
11,"Cc1cc(-c2cc(NC(=O)[C@H](Cc3ccccc3)NCc3ccccn3)cc(NS(C)(=O)=O)c2)ccn1 [Example 51.2, (2S)—N-(3-(2-Methylpyridin-4-yl)-5-(methylsulfonamido)phenyl)-3-phenyl-2-(pyridin-2-ylmethylamino)propanamide]",50 to 100 nM
12,"O=C(Nc1cc(-c2ccncc2)cc(C(F)(F)C(=O)O)c1)[C@H](Cc1ccccc1)NCc1cscn1 [Example 52, (S)-2,2-difluoro-2-(3-(3-phenyl-2-(thiazol-4-ylmethylamino)propanamido)-5-(pyridin-4-yl)phenyl)acetic acid]",100 to 1000 nM
13,"N#Cc1cc(-c2ccncc2)cc2c1CCN2C(=O)[C@H](Cc1ccccc1)NCc1cscn1 [Example 53, (S)-1-(3-Phenyl-2-(thiazol-4-ylmethylamino)propanoyl)-6-(pyridin-4-yl)indoline-4-carbonitrile]",100 to 1000 nM
14,"COC(=O)c1cc(-c2ccncc2)cc2c1CCN2C(=O)[C@@H](N)Cc1ccccc1 [Example 54.1, (S)-Methyl 1-(2-amino-3-phenylpropanoyl)-6-(pyridin-4-yl)indoline-4-carboxylate]",100 to 1000 nM
15,"COC(=O)c1cc(-c2ccncc2)cc2c1CCN2C(=O)[C@H](Cc1ccccc1)N[C@@H](C)c1ccccn1 [Example 54.2, Methyl 1-((S)-3-phenyl-2-((S)-1-(pyridin-2-yl)ethylamino)propanoyl)-6-(pyridin-4-yl)indoline-4-carboxylate TFA salt]",100 to 1000 nM
16,"COC(=O)c1cc(-c2ccncc2)cc2c1CCN2C(=O)[C@H](Cc1ccccc1)NCc1cscn1 [Example 54.3, (S)-Methyl 1-(3-phenyl-2-(thiazol-4-ylmethylamino)propanoyl)-6-(pyridin-4-yl)indoline-4-carboxylate]",50 to 100 nM
17,"COC(=O)c1cc(-c2ccncc2)cc2c1CCN2C(=O)[C@H](Cc1ccccc1)NCc1cc[nH]n1 [Example 54.4, (S)-Methyl 1-(2-((1H-pyrazol-3-yl)methylamino)-3-phenylpropanoyl)-6-(pyridin-4-yl)indoline-4-carboxylate]",50 to 100 nM
